According to PubChem BioAssay (NCI):
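A five-concentration, 48-hour dose response in 96-well plates underlies each endpoint, interpolated linearly between surrounding concentrations. GI50: concentration for 50% inhibition of growth. Definition used: TGI = concentration required for complete inhibition of growth.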

Experiments:
Assay in all cases: NCI-60 cell line screen, 48 h
[1] = system: HS 578T breast
[2] = system: CAKI-1 renal
[3] = system: COLO 205 colon
[4] = system: 786-0 renal
[5] = system: SK-MEL-28 melanoma
[6] = system: SK-MEL-2 melanoma
[7] = system: CCRF-CEM leukemia
[8] = system: BT-549 breast
[9] = system: HCT-15 colon
[10] = system: SK-OV-3 ovarian
[11] = system: HCC-2998 colon
[12] = system: ACHN renal
[13] = system: UACC-62 melanoma
[14] = system: T-47D breast
[15] = system: MDA-MB-468 breast
[16] = system: UACC-257 melanoma
[17] = system: OVCAR-5 ovarian
[18] = system: SF-295 CNS
[19] = system: SF-268 CNS
[20] = system: MDA-MB-231 breast
[21] = system: PC-3 prostate
[22] = system: MALME-3M melanoma
[23] = system: IGROV1 ovarian
[24] = system: TK-10 renal
[25] = system: OVCAR-3 ovarian
[26] = system: NCI-H23 lung
[27] = system: HOP-92 NSCLC
[28] = system: A549 NSCLC
[29] = system: HCT-116 colon
[30] = system: NCI-H522 lung
[31] = system: NCI-H226 lung
[32] = system: OVCAR-4 ovarian
[33] = system: RXF 393 renal
[34] = system: DU-145 prostate
[35] = system: OVCAR-8 ovarian
[36] = system: SW-620 colon
[37] = system: RPMI-8226 leukemia
[38] = system: U251 CNS
[39] = system: KM12 colon
[40] = system: SN12C renal
[41] = system: A498 renal
[42] = system: HT29 colon
[43] = system: MDA-MB-435
[44] = system: SNB-75 CNS
[45] = system: SF-539 CNS
[46] = system: EKVX NSCLC
[47] = system: LOX IMVI melanoma
[48] = system: SK-MEL-5 melanoma
[49] = system: HOP-62 NSCLC
[50] = system: NCI-H460 lung
[51] = system: NCI/ADR-RES ovarian
[52] = system: MCF7 breast
[53] = system: MOLT-4 leukemia
[54] = system: M14 melanoma
[55] = system: UO-31 renal
[56] = system: SNB-19 CNS
[57] = system: SR leukemia

`Cn1cc(-c2cc(N)n3nc(-c4c[nH]c5ccccc45)cc3n2)c2cc(F)ccc21` gave a GI50 [1] of 3.91 µM, a TGI [1] of 21.7 µM and a GI50 [2] of 1.97 µM. The TGI [2] was 4.73 µM, the GI50 [3] was 2.17 µM and the TGI [3] was 4.33 µM. It also gave a GI50 [4] of 1.49 µM, a TGI [4] of 2.95 µM and a GI50 [5] of 1.7 µM. It also gave a TGI [5] of 3.13 µM, a GI50 [6] of 2.06 µM and a TGI [6] of 4.91 µM. The GI50 [7] was 2.23 µM, the TGI [7] was 5.75 µM and the GI50 [8] was 17.6 µM. The TGI [8] was 34.2 µM, the GI50 [9] was 1.79 µM and the TGI [9] was 3.78 µM. For the same compound, the GI50 [10] was 6.82 µM, the TGI [10] was 23.6 µM and the GI50 [11] was 1.69 µM. The TGI [11] was 3.18 µM, the GI50 [12] was 2.07 µM and the TGI [12] was 4.81 µM. The GI50 [13] was 1.71 µM, the TGI [13] was 3.19 µM and the GI50 [14] was 2.05 µM. It also gave a TGI [14] of 4.92 µM, a GI50 [15] of 1.52 µM and a TGI [15] of 2.97 µM. The GI50 [16] was 1.9 µM, the TGI [16] was 3.85 µM and the GI50 [17] was 1.97 µM. For the same compound, the TGI [17] was 4.27 µM, the GI50 [18] was 1.71 µM and the TGI [18] was 3.39 µM. The GI50 [19] was 2.6 µM, the TGI [19] was 8.08 µM and the GI50 [20] was 1.98 µM. For the same compound, the TGI [20] was 3.63 µM, the GI50 [21] was 2.48 µM and the TGI [21] was 9.08 µM. The GI50 [22] was 1.75 µM, the TGI [22] was 3.18 µM and the GI50 [23] was 2.18 µM. It also gave a TGI [23] of 5.61 µM, a GI50 [24] of 2.02 µM and a TGI [24] of 7.64 µM. The GI50 [25] was 2.3 µM, the TGI [25] was 4.68 µM and the GI50 [26] was 1.91 µM. It also gave a TGI [26] of 4.22 µM, a GI50 [27] of 2.06 µM and a TGI [27] of 4.46 µM. It also gave a GI50 [28] of 2.84 µM, a TGI [28] of 11.1 µM and a GI50 [29] of 1.71 µM. It also gave a TGI [29] of 3.24 µM, a GI50 [30] of 1.78 µM and a TGI [30] of 3.62 µM. The GI50 [31] was 10.7 µM, the TGI [31] was 45.2 µM and the GI50 [32] was 2.76 µM. For the same compound, the TGI [32] was 8.16 µM, the GI50 [33] was 1.9 µM and the TGI [33] was 4.19 µM. For the same compound, the GI50 [34] was 3.7 µM, the TGI [34] was 13.3 µM and the GI50 [35] was 3.35 µM. The TGI [35] was > 100 µM, the GI50 [36] was 1.95 µM and the TGI [36] was 4 µM. It also gave a GI50 [37] of 2.48 µM, a TGI [37] of 6.22 µM and a GI50 [38] of 1.97 µM. It also gave a TGI [38] of 4.09 µM, a GI50 [39] of 2.12 µM and a TGI [39] of 4.64 µM. It also gave a GI50 [40] of 2.44 µM, a TGI [40] of 7.03 µM and a GI50 [41] of 11.6 µM. It also gave a TGI [41] of 26.6 µM, a GI50 [42] of 1.89 µM and a TGI [42] of 3.96 µM. For the same compound, the GI50 [43] was 1.93 µM, the TGI [43] was 4.01 µM and the GI50 [44] was 5.15 µM. The TGI [44] was 20.3 µM, the GI50 [45] was 1.63 µM and the TGI [45] was 3.01 µM. For the same compound, the GI50 [46] was 1.99 µM, the TGI [46] was 4.86 µM and the GI50 [47] was 1.74 µM. The TGI [47] was 3.11 µM, the GI50 [48] was 1.85 µM and the TGI [48] was 3.73 µM. For the same compound, the GI50 [49] was 2.83 µM, the TGI [49] was 13.9 µM and the GI50 [50] was 2.2 µM. For the same compound, the TGI [50] was 4.99 µM, the GI50 [51] was 2.35 µM and the TGI [51] was 6.35 µM. The GI50 [52] was 1.95 µM, the TGI [52] was 4.34 µM and the GI50 [53] was 2.32 µM. For the same compound, the TGI [53] was 6.32 µM, the GI50 [54] was 1.86 µM and the TGI [54] was 3.98 µM. It also gave a GI50 [55] of 1.71 µM, a TGI [55] of 3.65 µM and a GI50 [56] of 2.38 µM. The TGI [56] was 6.25 µM, the GI50 [57] was 2.01 µM and the TGI [57] was > 100 µM.
